Legend:
[1] = dissolution, paddle method USP XXII apparatus II; format: physicochemical; details: 900 ml 0.1 N HCl; tablet with 150 mg salt; 5-60 minutes; FIG. 1
Experimental: The paddle method is used in accordance with USP XXII, p. 1579, (apparatus II), with 900 ml 0.1 N HCl. […] Samples are taken after 5, 10, 20, 30 and 60 minutes and diluted.
The samples are analyzed spectrophotometrically at 345.9 nm in a Shimadzu 160 A photometer.

[2] = increased gastric pH; cited from earlier work
[3] = cited from earlier work

Molecule	release versus time compared with Vibramycin [1]	effect of increased pH of the stomach on bioavailability / dissociation and absorption [2]	patients spontaneously reporting nausea and vomiting ([3]; 24/373 patients)	patients reporting nausea and vomiting after questioning ([3]; 35/113 patients)	frequency of nausea and vomiting relative to other antibiotics ([3]; in vivo)
Doxycyclin Sucrose-octa-O-sulphonic Acid Salt [Example 2]	delayed release characteristics are similar				
C[C@H]1c2cccc(O)c2C(=O)C2=C(O)[C@]3(O)C(=O)C(C(N)=O)=C(O)[C@@H](N(C)C)[C@@H]3[C@@H](O)[C@@H]21.O [doxycyclin monohydrate]		decreases the bioavailability			
CCO.C[C@H]1c2cccc(O)c2C(=O)C2=C(O)[C@]3(O)C(=O)C(C(N)=O)=C(O)[C@@H](N(C)C)[C@@H]3[C@@H](O)[C@@H]21.C[C@H]1c2cccc(O)c2C(=O)C2=C(O)[C@]3(O)C(=O)C(C(N)=O)=C(O)[C@@H](N(C)C)[C@@H]3[C@@H](O)[C@@H]21.Cl.Cl.O [doxycyclin hyclate, doxycyclin hydrochloride (hyclate)]		independent of pH	6.4%	31%	3 fold

— patent publication US6077822A, “Drug salts” (Dumex-Alpharma A/S, priority 1993, dated 2000)
